In patent US20170128483A1, “HOST DEPENDENCY FACTORS AS TARGETS FOR ANTIVIRAL THERAPY” (Ruprecht-Karls-Universitat Heidelberg, priority 2014, published 2017):
Counter-ions that a name gives are not always drawn. Like-named read-outs stand apart in the source and are kept apart here.

Columns and labels:
DENV-2 [1] = assay: Virus yield inhibition assay, DENV-2 in Huh7 cells, titers by plaque assay; conditions: for Maximum effect on DENV replication (in words) / Emax: Huh7, DENV-2 MOI 0.1, 48 h; for Emax / EC50: Dengue virus; for Emax: DENV2, Huh-7, 48 h
[2] = Cell viability of Huh7 cells (ATP content / F-Luc activity); conditions: human
DENVTCP = assay: Time-of-addition with single-round DENVTCP particles in Huh7 cells, Rluc; conditions: 200 μM, readout 48 h
DENV-4 = assay: Virus yield inhibition assay, DENV-4 in Huh7 cells; assay type: cell-based, Dengue virus; conditions: 200 μM, Huh7, 48 h
Source text: (§1) Given the only 62-67% of amino acid conservation among DENV serotypes (Kyle & Harris 2008), the different serotypes might not be equally dependent on the same host factors for their replication.

DENV-2 [3] = assay: Virus yield inhibition, DENV-2 in primary human monocytes, plaque assay; assay type: cell-based; conditions: Dengue virus, DENV2, Monocyte
Experimental: Primary human monocytes isolated from peripheral blood from healthy donors were infected with DENV-2 at an MOI of 10 PFU/cell in the presence of the drug.
Peripheral blood samples from three healthy donors were collected in EDTA tubes. The blood was then diluted with 2 volumes of DPBS without calcium and without magnesium (PAN Biotech) and carefully layered onto Ficoll-hypaque (PAN Biotech). The blood was then subjected to centrifugation at 700 g, without brakes. The interphase cells containing the peripheral blood mononuclear cells (PBMCs) were aspirated, transferred to a clean tube and washed three times with DPBS. CD14+ monocytes were isolated using MicroBeads conjugated to monoclonal anti-human CD14 antibodies (MACS Miltenyi Biotec) according to the manufacturer's instructions, with some modifications. Briefly, 10 μl of Microbeads were incubated with 1×10^7 cells for 15 min at 4° C. After washing with DPBS magnetic separation of CD14+ monocytes was performed using an autoMACS Separator. The purity of the isolated monocytes (89.8% for donor 1, 94.8% for donor 2 and 97.7% for donor 3) was corroborated by FACS staining using anti-CD14 antibodies.
Identification of host factors using RNAi may depend to a large extent on the cellular system chosen to perform the screen, what argues for the need of testing the selected hit candidates in cellular systems more representative of the infection in nature. […] The impact of the drug on virus production was assessed by plaque assay 48 h after infection.

primary human monocytes = assay: Viability of primary human monocytes (ATP content); assay type: cell-based; conditions: 48 h
DENV(GND)sg-R2A = assay type: cell-based, Dengue virus; conditions: 200 μM, initial 10 h of transfection
DENVsg reporter replicon = assay: microbe, parasite or virus in culture; assay type: cell-based, Dengue virus
DENV-1 = assay: Virus yield inhibition assay, DENV-1 in Huh7 cells; assay type: cell-based, Dengue virus; conditions: 200 μM, Huh7, 48 h
Source text: as §1

DENV-3 = assay: Virus yield inhibition assay, DENV-3 in Huh7 cells; assay type: cell-based, Dengue virus; conditions: 200 μM, Huh7, 48 h
Source text: as §1

PPARα = biological target: T1, PPARα (Homo sapiens, UniProt Q07869); conditions: antagonist; cited from earlier work
T1 sequence (Q07869 1-468): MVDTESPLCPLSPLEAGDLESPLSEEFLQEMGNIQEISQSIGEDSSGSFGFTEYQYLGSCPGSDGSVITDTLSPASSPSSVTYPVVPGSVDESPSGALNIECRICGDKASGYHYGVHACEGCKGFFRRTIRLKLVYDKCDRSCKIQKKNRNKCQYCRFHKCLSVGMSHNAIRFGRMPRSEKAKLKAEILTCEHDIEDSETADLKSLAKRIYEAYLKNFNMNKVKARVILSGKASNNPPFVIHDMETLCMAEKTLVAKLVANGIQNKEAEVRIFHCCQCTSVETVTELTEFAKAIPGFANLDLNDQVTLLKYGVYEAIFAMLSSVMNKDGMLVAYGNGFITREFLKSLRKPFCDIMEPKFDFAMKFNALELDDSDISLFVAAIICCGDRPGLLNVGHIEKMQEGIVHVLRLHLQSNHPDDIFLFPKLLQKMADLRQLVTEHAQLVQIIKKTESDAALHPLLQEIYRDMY

PPARγ = biological target: T2, PPARγ (Homo sapiens, UniProt P37231); conditions: antagonist; cited from earlier work
T2 sequence (P37231 1-505): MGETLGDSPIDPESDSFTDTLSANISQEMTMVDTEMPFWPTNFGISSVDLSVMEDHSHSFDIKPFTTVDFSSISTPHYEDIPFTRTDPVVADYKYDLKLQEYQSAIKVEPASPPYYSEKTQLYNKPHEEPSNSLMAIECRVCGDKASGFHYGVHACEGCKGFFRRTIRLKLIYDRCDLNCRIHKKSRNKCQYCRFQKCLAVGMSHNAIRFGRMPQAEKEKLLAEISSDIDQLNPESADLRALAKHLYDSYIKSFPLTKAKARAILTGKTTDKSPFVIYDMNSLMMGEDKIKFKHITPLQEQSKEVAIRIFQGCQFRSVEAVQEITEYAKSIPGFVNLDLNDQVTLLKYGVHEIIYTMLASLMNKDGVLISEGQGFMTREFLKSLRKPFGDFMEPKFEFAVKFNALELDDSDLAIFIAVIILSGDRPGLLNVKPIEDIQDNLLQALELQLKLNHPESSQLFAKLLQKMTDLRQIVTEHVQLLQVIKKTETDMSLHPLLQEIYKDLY

[4] = concentration per compound as in Table 1
[5] = read-out: Maximum effect on DENV replication (inhibition), inhibition of virus production, concentration per compound as in Table 1 column 'Concentration used (FIG. 3B)'

For `C[N+](C)(C)CC#CCN1CCCC1=O.[I-]` [Oxotremorine M, N,N,N,-trimethyl-4-(2-oxo-1-pyrrolidinyl)-2-butyn-1-ammonium iodide], which “Maximum effect on DENV replication (in words)” value (from here on “Maximum effect”) (DENV-2 [1]; [4]) is on record?
Its value is “inactive”.

Which “Maximum effect” value (DENV-2 [1]; [4]) does the source give for `O=c1c(-c2ccc(O)cc2)coc2cc(O[C@@H]3O[C@H](CO)[C@@H](O)[C@H](O)[C@H]3O)ccc12` [Daidzin, Daidzein-7-O-β-D-glucopyranoside] here?
The value was “inactive”.

With `CC1CCC(C(C)C)C(O)C1` (centres unmarked) [Menthol, 2-Isopropyl-5-methylcyclohexanol] as the compound, how does the “Maximum effect” value (DENV-2 [1]; [4]) read?
The value was “inactive”.

For `COc1ccc(NC(=O)C2C[C@H](C)CC[C@H]2C(C)C)cc1` (stereo partly drawn) [WS-12, (2S,5R)-2-Isopropyl-N-(4-methoxyphenyl)-5-methylcyclohexane carboximide], which “Maximum effect” value (DENV-2 [1]; [4]) is on record?
The value was “inactive”.

Which “Maximum effect” value (DENV-2 [1]; [4]) does the source give for `CN1C2CCC1CC(OC(=O)C(CO)c1ccccc1)C2` (stereo not drawn) [Atropine, α-(Hydroxymethyl)benzeneacetic acid 8-methyl-8-azabicyclo[3.2.1]oct-3-yl ester] here?
Its value is “inactive”.

With `C=C(C)C1CNC(C(=O)O)C1CC(=O)O` (centres unmarked) [Kainic acid monohydrate, 2-Carboxy-3-carboxymethyl-4-isopropenylpyrrolidine] as the compound, how does the “Maximum effect” value (DENV-2 [1]; [4]) read?
The value was “inactive”.

For `Cc1cc(SCc2sc(-c3ccc(C(F)(F)F)c(F)c3)nc2C)ccc1OCC(=O)O` [GW0742], which Emax (DENV-2 [1]; read-out: Maximum effect on DENV replication (enhancement), enhancement of virus production, concentration per compound as in Table 1) is on record?
The Emax was ~48%.

Which “Maximum effect” value (DENV-2 [1]; [4]) does the source give for `Oc1cc2c(cc1O)CN(C(=S)NCCc1ccc(Cl)cc1)CCC2` [Capsazepine, N-[2-(4-Chlorophenyl)ethyl]-1,3,4,5-tetrahydro-7,8-dihydroxy-2H-2-benzazepine-2-carbothioamide] here?
Its value is “inactive”.

With `O=C(NCc1ccc2c(c1)OCO2)c1c(Cl)cccc1Cl` [Alda-1, N-(1,3-Benzodioxol-5-ylmethyl)-2,6-dichlorobenzamide] as the compound, how does the “Maximum effect” value (DENV-2 [1]; [4]) read?
Its value is “inactive”.

Which CC50 at 48 h [2] does the source give for `N=C(CCl)NCCC[C@H](NC(=O)c1ccccc1)C(N)=O` [Cl-amidine, N-α-benzoyl-N5-(2-chloro-1-iminoethyl)-L-ornithine amide] here?
The CC50 at 48 h was > 1000 µM.

What about the “time of addition after infection up to which inhibitory effect remained significant” value (DENVTCP) of the same compound?
The value was “up to 8 h”.

And the “reduction on virus production” value (DENV-4)?
The value was 10 fold.

What about the EC50 (DENV-2 [3]; 48 h, monocytes of Donor 1, MOI 10, 48 h, read-out: EC50) of the same compound?
Its EC50 is 16.9 µM.

What about the EC50 (DENV-2 [3]; 48 h, monocytes of Donor 2, MOI 10, 48 h, read-out: EC50) of the same compound?
The EC50 was 24.6 µM.

What about the EC50 (DENV-2 [3]; 48 h, monocytes of Donor 3, MOI 10, 48 h, read-out: EC50) of the same compound?
The EC50 was 22.9 µM.

What about the EC50 (DENV-2 [3]; three donors, read-out: EC50 values among different donors) of the same compound?
Its EC50 is 17 to 25 µM.

And the “cytotoxicity for primary human monocytes” value (primary human monocytes)?
The value was “not cytotoxic”.

What about the “reduction on virus production” value (DENV-2 [1]; 200 μM, Huh7, 48 h) of the same compound?
The value was 10 fold.

And the Emax (DENV-2 [1]; [5])?
The Emax was 92.7%.

What about the EC50 (DENV-2 [1]; DENV2, Huh-7, Huh7 transduced with shNT#2) of the same compound?
Its EC50 is 17.1 µM.

And the EC50 (DENV-2 [1]; DENV2, Huh-7, Huh7 transduced with shPADI4#4 (PADI4 silenced))?
The EC50 was 1.18 µM.

And the EC50 (DENV-2 [1]; DENV2, Huh-7, read-out: EC50 ± SD)?
Its EC50 is 215 ± 19 µM.

What about the EC50 (DENV-2 [1]; DENV2, Huh-7, read-out: EC50 ± SD, Huh7-Empty control cell line) of the same compound?
The EC50 was 19.3 ± 2.36 µM.

What about the EC50 (DENV-2 [1]; DENV2, Huh-7, read-out: EC50 ± SD, Parental Huh7, 2 h pretreatment, 48 h) of the same compound?
The EC50 was 16.1 µM.

And the “inhibition of virus titers” value (DENV-2 [1]; highest concentration tested, Huh7)?
The value was “up to 100 fold”.

And the “luciferase activity vs DMSO-treated cells” value (DENV(GND)sg-R2A)?
Its value is “no difference in luciferase activity”.

What about the “luciferase activity vs DMSO-treated cells” value (DENVsg reporter replicon; 200 μM, initial 10 h of transfection) of the same compound?
Its value is “no difference in luciferase activity”.

What about the EC50 (DENVsg reporter replicon; Dengue virus, Huh-7, 48 h, read-out: EC50 (R-Luc activity)) of the same compound?
Its EC50 is 16.5 ± 2.49 µM.

And the “reduction on virus production” value (DENV-1)?
The value was 10 fold.

And the “reduction on virus production” value (DENV-3)?
Its value is 10 fold.

With `COc1ccccc1CNCCCCCCNCCCCCCCCNCCCCCCNCc1ccccc1OC` [Methoctramine hydrate, N,N,′-bis[6-[[(2-Methoxyphenyl)methyl]amino]hexyl]-1,8-octane diaminetetrahydrochloride hydrate] as the compound, how does the “Maximum effect” value (DENV-2 [1]; [4]) read?
Its value is “inactive”.

Which “inhibition on virus production” value (DENV-2 [1]; 50 μM, Huh7, 48 h) does the source give for `Cl.N=C(N)CCl` [2CA, 2-chloroethanimidamide hydrochloride] here?
Its value is 77%.

For `COC(=O)c1sccc1S(=O)(=O)Nc1ccc(Nc2ccccc2)cc1OC` [GSK0660, 3-(((2-Methoxy-4-(phenylamino)phenyl)amino)sulfonyl)-2-thio-phenecarboxylic acid methyl ester], which IC50 (PPARα) is on record?
The IC50 was > 10 µM.

And the Emax (DENV-2 [1]; [5])?
Its Emax is ~62%.

And the IC50 (PPARγ)?
Its IC50 is > 10 µM.
